Consider 4 molecules from the RepoRT retention time repository (doi:10.1016/j.jchromb.2020.122105).

What all share (conditions): stereoisomer not certain
Data set [1] can be described thus: RP, Waters ACQUITY UPLC BEH C18, 100 × 2.1 mm, 1.7 µm, 0.1 mL/min, estimated dead time 2.2 min; A: water + 0.1% formic acid, pH 3; B: methanol + 0.1% formic acid, pH 3; gradient (min/%B) 0/5 5/5 25/95 25.1/100 35/100 35.1/5 45/5.
Data set [2] is described as follows: HILIC, Merck SeQuant ZIC-HILIC, 150 × 2.1 mm, 5 µm, 0.75 mL/min, estimated dead time 0.44 min; A: water + 10 mM ammonium formate, pH 6; B: 5% water + 95% acetonitrile + 10 mM ammonium formate, pH 6; gradient (min/%B) 0/95 5/95 20/57 25/57 30/95 40/95.
Data set [3] is described as follows: RP, Waters CORTECS T3, 100 × 2.1 mm, 2.7 µm, 0.3 mL/min, estimated dead time 0.73 min; A: water + 0.1% formic acid, pH 3; B: methanol + 0.1% formic acid, pH 3; gradient (min/%B) 0/0 5/0 25/100 30/100 30.1/0 35/0.
Data set [4] can be described thus: RP, Waters CORTECS T3, 100 × 2.1 mm, 2.7 µm, 0.2 mL/min, estimated dead time 1.1 min; A: water + 0.1% formic acid, pH 3; B: methanol + 0.1% formic acid, pH 3; gradient (min/%B) 0/0 1/0 6/5 30/100 35/100 35.1/0 40/0.
The nature of data set [5]: RP, Waters ACQUITY UPLC BEH C18, 100 × 2.1 mm, 1.7 µm, 0.1 mL/min, estimated dead time 2.2 min; A: water + 0.1% formic acid, pH 3; B: methanol + 0.1% formic acid, pH 3; gradient (min/%B) 0/5 5/5 25/100 30/100 30.1/5 35/5.
Data set [6] in a line: RP, Waters CORTECS T3, 100 × 2.1 mm, 2.7 µm, 0.3 mL/min, estimated dead time 0.73 min; A: water + 0.1% formic acid, pH 3; B: methanol + 0.1% formic acid, pH 3; gradient (min/%B) 0/0 1/0 6/5 30/100 35/100 35.1/0 40/0.
Data set [7] can be described thus: RP, Thermo Scientific Hypercarb, 150 × 2.1 mm, 5 µm, 0.1 mL/min, estimated dead time 3.3 min; A: water + 0.1% formic acid, pH 3; B: methanol + 0.1% formic acid, pH 3; gradient (min/%B) 0/5 5/5 20/100 35/100 35.1/5 45/5.
Data set [8] in a line: RP, Waters CORTECS T3, 100 × 2.1 mm, 2.7 µm, 0.3 mL/min, estimated dead time 0.73 min; A: water + 0.1% formic acid, pH 3; B: methanol + 0.1% formic acid, pH 3; gradient (min/%B) 0/5 5/5 25/95 25.1/100 35/100 35.1/5 45/5.
Data set [9] in a line: RP, Waters CORTECS T3, 100 × 2.1 mm, 2.7 µm, 0.15 mL/min, estimated dead time 1.5 min; A: water + 0.1% formic acid, pH 3; B: methanol + 0.1% formic acid, pH 3; gradient (min/%B) 0/0 1/0 6/5 30/100 35/100 35.1/0 40/0.
Data set [10] can be described thus: RP, Waters ACQUITY UPLC BEH C18, 100 × 2.1 mm, 1.7 µm, 0.1 mL/min, estimated dead time 2.2 min; A: water + 0.045% formic acid + 0.11% ammonium hydroxide, pH 7; B: methanol; gradient (min/%B) 0/5 5/5 25/95 25.1/100 35/100 35.1/5 45/5.
The nature of data set [11]: HILIC, Merck SeQuant ZIC-HILIC, 150 × 2.1 mm, 5 µm, 0.75 mL/min, estimated dead time 0.44 min; A: water + 0.1% acetic acid + 10 mM ammonium acetate, pH 4; B: 5% water + 95% acetonitrile + 0.1% acetic acid + 10 mM ammonium acetate, pH 4; gradient (min/%B) 0/95 5/95 20/57 25/57 30/95 40/95.
Data set [12] is described as follows: RP, Waters ACQUITY UPLC BEH C18, 100 × 2.1 mm, 1.7 µm, 0.2 mL/min, estimated dead time 1.1 min; A: water + 0.025% formic acid + 20 mM ammonium acetate + 0.055% ammonium hydroxide, pH 7; B: methanol; gradient (min/%B) 0/5 5/5 25/100 30/100 30.1/5 35/5.
A short description of data set [13]: RP, Waters CORTECS T3, 100 × 2.1 mm, 2.7 µm, 0.1 mL/min, estimated dead time 2.2 min; A: water + 0.1% formic acid, pH 3; B: methanol + 0.1% formic acid, pH 3; gradient (min/%B) 0/0 1/0 6/5 30/100 35/100 35.1/0 40/0.
The nature of data set [14]: RP, Waters CORTECS T3, 100 × 2.1 mm, 2.7 µm, 0.25 mL/min, estimated dead time 0.88 min; A: water + 0.1% formic acid, pH 3; B: methanol + 0.1% formic acid, pH 3; gradient (min/%B) 0/0 1/0 6/5 30/100 35/100 35.1/0 40/0.
Data set [15] is described as follows: RP, Waters CORTECS T3, 100 × 2.1 mm, 2.7 µm, 0.1 mL/min, estimated dead time 2.2 min; A: water + 0.1% formic acid, pH 3; B: methanol + 0.1% formic acid, pH 3; gradient (min/%B) 0/5 5/5 25/95 25.1/100 35/100 35.1/5 45/5.
Data set [16] is described as follows: RP, Waters CORTECS T3, 100 × 2.1 mm, 2.7 µm, 0.2 mL/min, estimated dead time 1.1 min; A: water + 0.045% formic acid + 0.11% ammonium hydroxide, pH 7; B: methanol; gradient (min/%B) 0/5 5/5 25/95 25.1/100 35/100 35.1/5 45/5.
A short description of data set [17]: HILIC, Waters XBridge BEH Amide, 100 × 2.1 mm, 2.5 µm, 0.5 mL/min, estimated dead time 0.44 min; A: water + 0.1% acetic acid + 10 mM ammonium acetate, pH 4; B: 5% water + 95% acetonitrile + 0.1% acetic acid + 10 mM ammonium acetate, pH 4; gradient (min/%B) 0/95 5/95 20/57 25/57 30/95 40/95.
Data set [18] can be described thus: RP, Waters CORTECS T3, 100 × 2.1 mm, 2.7 µm, 0.3 mL/min, estimated dead time 0.73 min; A: water + 0.1% formic acid, pH 3; B: methanol + 0.1% formic acid, pH 3; gradient (min/%B) 0/5 5/5 25/100 30/100 30.1/5 35/5.
A short description of data set [19]: RP, Waters ACQUITY UPLC BEH C18, 100 × 2.1 mm, 1.7 µm, 0.2 mL/min, estimated dead time 1.1 min; A: water + 0.025% formic acid + 20 mM ammonium acetate + 0.055% ammonium hydroxide, pH 7; B: methanol; gradient (min/%B) 0/5 5/5 25/100 30/100 30.1/5 35/5. This is another data set of the same source.
Data set [20] in a line: RP, Waters ACQUITY UPLC BEH C18, 100 × 2.1 mm, 1.7 µm, 0.1 mL/min, estimated dead time 2.2 min; A: water + 0.1% formic acid, pH 3; B: methanol + 0.1% formic acid, pH 3; gradient (min/%B) 0/5 5/5 25/95 25.1/100 35/100 35.1/5 45/5. The source holds these as a separate data set.
Data set [21] in a line: RP, Waters ACQUITY UPLC BEH C18, 100 × 2.1 mm, 1.7 µm, 0.2 mL/min, estimated dead time 1.1 min; A: water + 0.1% formic acid, pH 3; B: methanol + 0.1% formic acid, pH 3; gradient (min/%B) 0/5 5/5 25/100 30/100 30.1/5 35/5.
Data set [22] can be described thus: RP, Waters CORTECS T3, 100 × 2.1 mm, 2.7 µm, 0.2 mL/min, estimated dead time 1.1 min; A: water + 0.1% formic acid, pH 3; B: methanol + 0.1% formic acid, pH 3; gradient (min/%B) 0/5 5/5 25/95 25.1/100 35/100 35.1/5 45/5.
Data set [23] in a line: RP, Waters CORTECS T3, 100 × 2.1 mm, 2.7 µm, 0.2 mL/min, estimated dead time 1.1 min; A: water + 0.1% formic acid, pH 3; B: methanol + 0.1% formic acid, pH 3; gradient (min/%B) 0/0 1/0 6/5 30/100 35/100 35.1/0 40/0. This is another data set of the same source.
Data set [24] in a line: RP, Waters CORTECS T3, 100 × 2.1 mm, 2.7 µm, 0.15 mL/min, estimated dead time 1.5 min; A: water + 0.1% formic acid, pH 3; B: methanol + 0.1% formic acid, pH 3; gradient (min/%B) 0/5 5/5 25/95 25.1/100 35/100 35.1/5 45/5.
Data set [25] can be described thus: RP, Waters CORTECS T3, 100 × 2.1 mm, 2.7 µm, 0.3 mL/min, estimated dead time 0.73 min; A: water + 0.1% formic acid, pH 3; B: methanol + 0.1% formic acid, pH 3; gradient (min/%B) 0/0 1/0 6/5 30/100 35/100 35.1/0 40/0. This is another data set of the same source.
Data set [26] is described as follows: RP, Waters CORTECS T3, 100 × 2.1 mm, 2.7 µm, 0.25 mL/min, estimated dead time 0.88 min; A: water + 0.1% formic acid, pH 3; B: methanol + 0.1% formic acid, pH 3; gradient (min/%B) 0/5 5/5 25/95 25.1/100 35/100 35.1/5 45/5.
Data set [27] can be described thus: RP, Waters CORTECS T3, 100 × 2.1 mm, 2.7 µm, 0.3 mL/min, estimated dead time 0.73 min; A: water + 0.1% formic acid, pH 3; B: methanol + 0.1% formic acid, pH 3; gradient (min/%B) 0/0 5/0 25/100 30/100 30.1/0 35/0. The source holds these as a separate data set.

Take `CC1NCCc2cc(O)c(O)cc21` (stereo not given) [1-METHYL-6,7-DIHYDROXY-1,2,3,4-TETRAHYDROISOQUINOLINE]: the LC retention time in [1] is 2.66 min; in data set [2], 8.92 min; in [3], 0.93 min; in data set [4] it was 1.34 min; in data set [5], 2.74 min; in [6], 0.92 min. Besides, the LC retention time is 17.8 min in data set [7], 0.9 min in [8] and 1.83 min in data set [9].

As to `NC(=O)Cc1c[nH]c2ccccc12` [INDOLE-3-ACETAMIDE], the LC retention time in [10] was 15.6 min; in [1], 15.6 min; in data set [11], 0.95 min; in data set [12], 11.9 min; in data set [13], 11.6 min; in data set [14], 12.1 min. In addition, the LC retention time in [3] is 11.1 min; in data set [4] it was 13 min; in [5], 15.4 min; in data set [15], 15.2 min; in data set [16], 11.7 min; in data set [6], 11.4 min. Also, the LC retention time was 0.91 min in data set [17]; 9.85 min in data set [18]; 9.92 min in [8]; 11.9 min in data set [19]; 14.5 min in data set [9].

On to `NC(=O)C1CCCN1C(=O)C(Cc1cnc[nH]1)NC(=O)C1CCC(=O)N1` (stereo not given) [THYROTROPIN RELEASING HORMONE], for which the LC retention time was 2.66 min in [1]; 7.17 min in data set [12]; 1.09 min in data set [14]; 0.89 min in [3]; 1.34 min in data set [4]; 2.7 min in data set [20]. Moreover, the LC retention time was 2.74 min in [5]; 0.92 min in data set [6]; 15.7 min in data set [7]; 1.38 min in [21]; 0.9 min in data set [8]; 2.67 min in data set [22]. Besides, the LC retention time in data set [9] is 1.83 min.

Regarding `CCC(NC(=O)CCC(N)C(=O)O)C(=O)NCC(=O)O` (stereo not given) [OPHTHALMIC ACID], the LC retention time in [23] is 1.38 min; in data set [1], 2.66 min; in data set [11], 13.8 min; in data set [14], 1.13 min; in [3], 0.93 min; in data set [4] it was 1.38 min. Moreover, the LC retention time is 1.78 min in [24]; 2.7 min in data set [20]; 2.74 min in data set [5]; 0.96 min in [25]; 0.92 min in [6]; 14.5 min in [17]. Further, the LC retention time in data set [7] was 18.5 min; in data set [26], 1.08 min; in [21], 1.42 min; in [18] it was 0.93 min; in [8], 0.9 min; in data set [22], 2.74 min. The LC retention time in data set [27] is 0.93 min; in data set [19], 1.36 min; in [9], 1.87 min.
